The values that follow come from patent publication US9452177B2, “Vitamin D compounds and methods for reducing ocular hypertension (OHT)” (Wisconsin Alumni Research Foundation, priority 2008, dated 2016).

Data set [1] in a line: Ocular inflammation by slit-lamp biomicroscopy. Format: in vivo, cynomolgus monkeys (Macaca fascicularis). To be noted: Example 1; 5 topical treatments, 5 μg (2MD 6 μg). The method, then: The intraocular pressure (IOP) was determined with a “minified” Goldmann applanation tonometer [Kaufman, 1980] using HALF AND HALF™ creamer solution (Borden) as the tear film indicator [Croft, 1997] with the monkey lying prone in a head holder and the eyes positioned 4 to 8 cm above the heart. All monkeys were examined by slit-lamp before the first IOP measurement in each protocol. For each eye, two or three IOP measurements were averaged as a baseline.
On the 3th day, prior to the 5th treatment, baseline IOP, biomicroscopy and MAP were determined. Preliminary studies indicated an effect was observed after these treatments but not after a single treatment. Following the 5th dose, IOP was measured at 1, 2, 3, 4, 5, 6, 7, 8, 12 (if possible), 24, and sometimes 48 hr. Biomicroscopy was done at 1, 3, 6, 24 and sometimes 48 hr. MAP on day 3 (some protocols) was determined at 1, 2, 3, 4, 5, 6, 7, 8, 24 and sometimes 48 hr if possible. Blood samples after the 5th treatment were collected at 6, 24, and sometimes 48 hr. For some protocols, IOP was also measured prior to each treatment; MAP was measured prior to the morning treatment; blood was collected prior to the afternoon treatment. Subsequent screening protocols will not include the MAP and blood collections and will only measure IOP at baseline and prior to and for 1-6 hr after the 5th treatment.
Baseline pretreatment IOP was determined by Goldmann applanation tonometry [Kaufman, 1980] with […] used as a tear film indicator [Croft, 1997]. Two baseline IOP measurements were taken 5 minutes apart. Monkeys were then treated topically with 5 μl of 1,25-dihydroxyvitamin D3 (1,25-(OH)2D3) (0.1-5 μg) to one eye and vehicle (propylene glycol) to the opposite eye twice a day for 5 treatments total. […] IOP was also measured prior to the afternoon treatment. On the third day, IOP was measured prior to the morning treatment. Following the fifth treatment, IOP was measured hourly for 8 hours and, in some cases, also at 12, 24, and 48 hours. […]

The subject of another data set is monkey eyes. As to the kind of experiment: Outflow facility by two-level constant pressure perfusion of the anterior chamber. Format: in vivo, cynomolgus monkeys. The note with it: for increase in outflow facilities, vitamin D treated eyes: combined n=8. The method, then: Ocular normotensive adult cynomolgus monkeys, of either sex, weighing 3-7 kg were anesthetized with i.m. ketamine HCl (3-25 mg/kg, supplemented with 1-10 mg/kg) for IOP, topical drop administration and aqueous humor flow measurements. All monkeys were free of any ocular abnormalities according to slit lamp biomicroscopy at the time measurements were taken. For outflow facility measurements, animals were given intravenous sodium pentobarbital (15 mg/kg, supplemented with 5-10 mg/kg) following i.m. ketamine induction.
Outflow facility was determined in pentobarbital-anesthetized monkeys [Gabelt, 2004] by two-level constant pressure perfusion of the anterior chamber with Bárány's perfusand [Bárány, 1964] (n=8). Four monkeys (group A) received the single bolus injection of 1 μl of 1 μg vitamin D 1,25-dihydroxyvitamin D3 (1,25-(OH)2D3) into the anterior chamber of one eye (Treated eye) or 1 μl of propylene glycol into the anterior chamber of fellow eye (Control eye). Four monkeys (group B) were treated topically with 5 μg of vitamin D in 5 μl of propylene glycol or vehicle (5 μl of propylene glycol) twice daily for two days.
Following baseline outflow facility measurements on the third day, the fifth treatment was administered as a single bolus injection of 1 μl of 1 μg vitamin D 1,25-dihydroxyvitamin D3 (1,25-(OH)2D3) into the anterior chamber of one eye (Treated eye) or 1 μl of propylene glycol into the anterior chamber of fellow eye (Control eye). Following injections, the treatment bolus was allowed to wash in for 5 min with flow from the reservoirs. Then the contents of the anterior chamber were mixed by blowing cold air on the cornea to create convection. Reservoirs were closed for 75 minutes, then reopened and outflow facility measured for 60-90 minutes. Data were averaged for the entire 60-90 minute period and for 30-minute intervals and then were compared to baseline and to the vehicle treated eyes. Ratios were compared by the two-tailed paired t-test for ratios different from 1.0.
Baseline outflow facilities were studied in two groups (A and B) of monkeys (Materials and Methods). Group A (n=4) was treated with single bolus intracameral injection of 1 μg vitamin D (1,25-(OH)2D3) in 1 μl propylene glycol in one eye and 1 μl vehicle, propylene glycol in the control eye (Table 2, A). Group B (n=4) was treated topically with 5 μg of vitamin D in 5 μl of propylene glycol or vehicle (5 μl of propylene glycol) twice daily for two days. Then, following baseline outflow facility measurements on the third day, the fifth treatment was administered as a single bolus injection of 1 μl of 1 μg vitamin D 1,25-dihydroxyvitamin D3 (1,25-(OH)2D3) into the anterior chamber of one eye (Treated eye) or 1 μl of propylene glycol into the anterior chamber of fellow eye (Control eye).

Where [2] appears, read: Combined data for Groups A and B, n=8.
Where [3] appears, read: Group A, 1 μg intracameral, n=4.
Setting [4] is: Group B, 5 μg topical (4 treatments) then 1 μg intracameral, n=4.

The structures appear in SMILES notation. “Also recorded” adds a separate entry of the source.

On to `C=C1/C(=C\C=C2/CCC[C@]3(C)[C@@H]([C@H](C)CCCC(C)(C)O)CC[C@@H]23)C[C@@H](O)C[C@@H]1O` [1,25-(OH)2D3, 1α,25-dihydroxyvitamin D3], for which the ocular inflammation entry in data set [1] is given as “no ocular inflammation at any time-point”. Moreover, the “Cumulative 90 min outflow facility, Treated eye after Vitamin D” value in the data set on monkey eyes (setting [2]) is reported as 0.44 ± 0.13 μl/min/mmHg; in the data set with monkey eyes (setting [3]), 0.37 ± 0.07 μl/min/mmHg; in the data set with monkey eyes (setting [4]), 0.51 ± 0.26 μl/min/mmHg. Moreover, the “Outflow facility Vitamin D/Baseline, Treated/Control” value in the data set on monkey eyes (setting [2]) came to 0.94 ± 0.11; in the data set on monkey eyes (setting [3]), 1.04 ± 0.13; with monkey eyes (setting [4]), 0.84 ± 0.18. Moreover, the “Outflow facility ratio Treated/Control after Vitamin D” value with monkey eyes (setting [2]) is 0.87 ± 0.16; in the data set with monkey eyes (setting [3]) it was 0.82 ± 0.20; in the data set with monkey eyes (setting [4]), 0.91 ± 0.27. Moreover, the “Outflow facility Vitamin D/Baseline, Treated eye” value in the data set on monkey eyes (Combined data for Groups A and B, n=8, *p<0.05 vs 1.0) is recorded as 1.59 ± 0.19*; in the data set with monkey eyes (setting [3]) it was 1.80 ± 0.30; in the data set with monkey eyes (setting [4]), 1.39 ± 0.45. The “increase in outflow facilities, vitamin D treated eyes” value is recorded as 60% with monkey eyes (at 60 min, significant); 115% in the data set with monkey eyes (at 90 min, significant); 10% in the data set with monkey eyes (first 30 min after the bolus injection, non-significant). Further, the “increase in outflow facilities over baseline, both eyes” value with monkey eyes (at 90 min after the intracameral injections) was “about 100%”. Besides, the “outflow facility, vitamin D versus vehicle treated eyes” value with monkey eyes (cumulative 90 min, groups A and B and combined) is “no significant differences were found neither between the vitamin D or vehicle treated eyes; also recorded: did not change either the aqueous humor flow or the outflow facilities”.
